The results in this text go back to PubChem BioAssay (NCI).

The structures appear in SMILES notation.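 Five concentrations, 48 hours, 96-well plates. TGI marks complete inhibition of growth.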

Some test systems named below: 786-0 renal; A549 NSCLC; MALME-3M melanoma; MDA-N; NCI-H460 lung; OVCAR-3 ovarian; OVCAR-5 ovarian; SF-295 CNS; SK-MEL-2 melanoma; SK-MEL-5 melanoma; SK-OV-3 ovarian.
What all share (assay): NCI anticancer screen, dose series, 48 h

In the case of `O=C(c1ccccc1)N1CCN(C(=S)N(C(=O)c2ccccc2)c2ccccc2)C1=S`, the TGI in the test with 786-0 renal amounted to 5.31 µM; in the test on A549 NSCLC it was 19.1 µM; in the test on MALME-3M melanoma, 19.1 µM; in the test on MDA-N, 17.1 µM; in the test on NCI-H460 lung, 44.7 µM; with OVCAR-3 ovarian it was 15.4 µM. Besides, the TGI with OVCAR-5 ovarian was found to be 42.1 µM; with SF-295 CNS, 31.6 µM; with SK-MEL-2 melanoma it was 23.5 µM; in the test with SK-MEL-5 melanoma, 26.5 µM; in the test with SK-OV-3 ovarian, 30.2 µM.

With `COC(=O)C(Cc1c(C2Nc3ccccc3C2CC(NC(=O)CNC(C)=O)C(=O)OC)[nH]c2ccccc12)NC(=O)CNC(C)=O` (stereo not drawn), the TGI in the test on 786-0 renal, in the test with A549 NSCLC, in the test with MALME-3M melanoma, in the test on MDA-N, with NCI-H460 lung and with OVCAR-3 ovarian was more than 100 µM throughout. Moreover, the TGI with OVCAR-5 ovarian, in the test on SF-295 CNS, in the test with SK-MEL-2 melanoma, with SK-MEL-5 melanoma and in the test on SK-OV-3 ovarian was more than 100 µM throughout.

`COC(=O)/C(=C\Nc1cccc(C)n1)S(=O)(=O)c1ccc(C)cc1`: the TGI in the test with 786-0 renal, in the test with A549 NSCLC, with MALME-3M melanoma, in the test on MDA-N, with NCI-H460 lung and in the test with OVCAR-3 ovarian was more than 100 µM in each case. The TGI in the test with OVCAR-5 ovarian, with SF-295 CNS, with SK-MEL-2 melanoma, with SK-MEL-5 melanoma and in the test on SK-OV-3 ovarian was more than 100 µM each time.
